Measurements as given in the NIST ThermoML archive (doi:10.1016/j.fluid.2019.02.010).

Assay: xn = mol fraction of the nth substance listed
Conditions: 101 kPa, Liquid, Vibrating tube method

CCCCCCCC[N+](CCCCCCCC)(CCCCCCCC)CCCCCCCC.[Br-] [tetraoctylammonium bromide] + CCCCCCCCCC(=O)O
x2 = 0.667
Conditions	mass density [kg/m3]
293 K	932.9
298 K	929.6
303 K	926.3
308 K	923
313 K	919.7
318 K	916.5
323 K	913.2
328 K	910

CCCCCCCCCC(=O)O [decanoic acid] + CC(C)[C@@H]1CC[C@@H](C)C[C@H]1O
x1 = 0.5
Conditions	mass density [kg/m3]
293 K	901.1
298 K	897.6
303 K	894
308 K	890.4
313 K	886.7
318 K	883.1
323 K	879.4
328 K	875.7

CCN(CC)CC(=O)Nc1c(C)cccc1C [2-(diethylamino)-N-(2,6-dimethylphenyl)acetamide] + CCCCCCCCCC(=O)O
mass density [kg/m3]
Conditions	293 K	298 K	303 K	308 K	313 K	318 K	323 K	328 K
x2 = 0.667	960.9	956.8	952.8	948.7	944.7	940.6	936.4	932.3
x2 = 0.75	952.5	948.4	944.3	940.2	936.1	931.9	927.7	923.5
x2 = 0.8	944.9	940.9	936.9	932.9	928.9	924.7	920.6	916.4

CCN(CC)CC(=O)Nc1c(C)cccc1C [2-(diethylamino)-N-(2,6-dimethylphenyl)acetamide] + Cc1ccc(C(C)C)c(O)c1
x2 = 0.667
Conditions	mass density [kg/m3]
293 K	989.1
298 K	985.4
303 K	981.6
308 K	977.9
313 K	974.2
318 K	970.4
323 K	966.6
328 K	962.9

CCN(CC)CC(=O)Nc1c(C)cccc1C [2-(diethylamino)-N-(2,6-dimethylphenyl)acetamide] + CCCCCCCCCCCC(=O)O
x2 = 0.667
Conditions	mass density [kg/m3]
293 K	949.6
298 K	945.6
303 K	941.6
308 K	937.6
313 K	933.6
318 K	929.6
323 K	925.55
328 K	921.5

Cc1ccc(C(C)C)c(O)c1 [3-methyl-6-isopropylphenol] + CCCCCCCCCC(=O)O
x2 = 0.5
Conditions	mass density [kg/m3]
293 K	931.8
298 K	928
303 K	924.2
308 K	920.3
313 K	916.5
318 K	912.6
323 K	908.7
328 K	904.9
